Test results taken from patent US8410153B2, “Naphthalene isoxazoline invertebrate pest control agents” (E.I. du Pont de Nemours and Company, priority 2007, dated 2013).

Key:
Type in all cases: in vivo
[1] = test system: fall armyworm (Spodoptera frugiperda); test: Test B: control of fall armyworm on corn (maize) plant, foliar spray; conditions: sprayed at 50 ppm
Summary of the method: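 4-5-day-old corn plants pre-infested with 10-15 1-day-old larvae on insect diet, then sprayed with compound at 50 ppm in 10% acetone/90% water with 300 ppm surfactant, three replicates. Held 6 days at 25° C, 70% RH; feeding damage assessed visually and mortality rated.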

[2] = test system: diamondback moth (Plutella xylostella); test: Test A: control of diamondback moth on radish plant, foliar spray; conditions: sprayed at 50 ppm, held 6 days
Summary of the method: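 Radish plants 12–14 days old, pre-infested with about 50 neonate larvae, sprayed at 50 ppm in 10% acetone/water with 300 ppm X-77 surfactant; three replicates. After 6 days at 25° C and 70% RH, feeding damage was scored visually and mortality counted.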

[3] = test system: western flower thrips (Frankliniella occidentalis); test: Test E: control of western flower thrips on Soleil bean plant, contact and/or systemic; conditions: held 6 days
Summary of the method: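 5–7-day-old Soleil bean plants were sprayed at 250 or 50 ppm in 10% acetone/90% water with 300 ppm X-77 surfactant, three replicates. After drying 1 h, 22–27 adult thrips were added per unit. Mortality and plant damage were rated after 6 days at 25 °C and 45–55% RH.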

Measured: levels of control efficacy (20% or less feeding damage or 80% or more mortality)

CC(NC(=O)c1ccc(C2=NOC(c3cc(C(F)(F)F)cc(C(F)(F)F)c3)(C(F)(F)F)C2)c2ccccc12)C(=O)NC(C)C(F)(F)F (stereo not shown) [Compound 121]
very good to excellent: [1] | [2] | [3]; sprayed at 250 ppm

CC(NC(=O)c1ccc(C2=NOC(c3cc(Br)cc(C(F)(F)F)c3)(C(F)(F)F)C2)c2ccccc12)C(=O)NCC(F)(F)F (mixture of isomers) [Compound 140]
very good to excellent: [1] | [2] | [3]; sprayed at 50 ppm

O=C(NCCO)c1ccc(C2=NOC(c3cc(Cl)cc(Cl)c3)(C(F)(F)F)C2)c2ccccc12 (stereo not shown) [Compound 11]
very good to excellent: [1] | [2] | [3]; sprayed at 50 ppm | [3]; sprayed at 250 ppm
